# Columns and labels:
# [1] = UV absorption of the compounds (absorption maximum and specific absorbance); assay type: physicochemical; settings: for λmax: UV absorption maximum; for E^11: specific absorbance at λmax
# [2] = used alone or in combination with UV-B filters; cited from earlier work
λmax [1] [nm],E^11 [1],melting point [°C],Structure (SMILES),photochemical stability [2]
354,1173,–,"CCN(CC)c1ccc(C(=O)c2ccccc2C(=O)OC)c(O)c1 [Example 1, Methyl 2-(4-diethylamino-2-hydroxybenzoyl)benzoate]",–
359,1280,46 to 48,"CCN(CC)c1ccc(C(=O)c2ccccc2)c(O)c1 [Example 2, 4-diethylamino-2-hydroxyphenyl phenyl ketone]",–

# The next lines start with the compound.
Structure (SMILES),λmax [1] [nm],E^11 [1],melting point [°C],photochemical stability [2]
O=C(O)c1ccccc1C(=O)c1ccc(N2CCCC2)cc1O [Example 3],355,1167,203,–
COC(=O)c1ccccc1C(=O)c1ccc(N2CCCC2)cc1O [Example 4],355,1179,164,–
"COc1ccc(C(=O)CC(=O)c2ccc(C(C)(C)C)cc2)cc1 [PARSOL 1789, 4-(1,1-dimethylethyl)-4′-methoxydibenzoylmethane]",–,–,–,does not have sufficient photochemical stability
